# From article PMC8047873, “An antibiotic-resistance conferring mutation in a neisserial porin: Structure, ion flux, and ampicillin binding” (Biochimica et Biophysica Acta. Biomembranes, 2021)
# Target: T1, PorB (wt PorB) (Neisseria meningitidis, UniProt M4GGR4)
# T1 construct: outer membrane porin, homotrimer, purified in LDAO and inserted in planar lipid bilayers or liposomes; about 340 residues; expression as described previously
# Assay: single-channel electrophysiology, planar black lipid membrane, JULES idealization
# Type: binding
# Conditions: +80 mV, 1 M KCl, 10 mM HEPES, pH 7.5; DPhPC/cholesterol 9:1; pore block
# T1 sequence (M4GGR4 entry or part of it): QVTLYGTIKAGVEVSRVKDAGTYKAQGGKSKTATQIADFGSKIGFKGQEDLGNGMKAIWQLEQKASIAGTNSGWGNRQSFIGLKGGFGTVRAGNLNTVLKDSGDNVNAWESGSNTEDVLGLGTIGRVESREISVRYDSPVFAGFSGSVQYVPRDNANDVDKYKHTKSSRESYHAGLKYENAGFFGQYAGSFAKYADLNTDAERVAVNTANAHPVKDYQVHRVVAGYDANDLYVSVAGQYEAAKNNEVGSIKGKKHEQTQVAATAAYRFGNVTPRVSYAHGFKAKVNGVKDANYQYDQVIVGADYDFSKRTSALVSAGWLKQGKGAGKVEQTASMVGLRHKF
compound,measurement,value
CC1(C)S[C@@H]2[C@H](NC(=O)[C@H](N)c3ccccc3)C(=O)N2[C@H]1C(=O)O [ampicillin],residence time τR,35 ± 1 μs
